One test concerns HepG2. Description: Antiproliferative activity against human HepG2 cells assessed as inhibition of cell growth incubated for 72 hrs by MTT assay. The format is functional, cell-based. As to conditions: HepG2, 72 h.
In the next test the test system is H22. Description: Antitumor activity against […] xenografted in ICR mouse assessed as inhibition of tumor growth at 20 mg/kg, iv administered for 21 days and measured every 2 days relative to control. In kind it is functional. As to conditions: H22, 504 h, time 21 day, read-out: TGI.
Test [1] deals with Quadruplex DNA. Description: Binding affinity to c-MYC G4-quadruplex DNA (unknown origin) using fluorescent tagged FPu18T model assessed as stabilization by measuring change in melting temperature at 2 uM by fluorescence based analysis. The format is nucleic-acid assay.
For the next test, the system named is DNA. Description: Binding affinity to duplex DNA (unknown origin) using fluorescent tagged F10T model assessed as stabilization by measuring change in melting temperature at 2 uM by fluorescence based analysis. The format is nucleic-acid assay.
Test [2] concerns Quadruplex DNA. The test can be described thus: Binding affinity to c-MYC G4-quadruplex DNA (unknown origin) using fluorescent tagged FPu18T model assessed as stabilization by measuring change in melting temperature at 2 uM incubated in presence of non-fluorescent ds26 DNA by fluorescence based analysis. In kind it is nucleic-acid assay.

As to `CCCCCCCCCCCCc1c2[n+](cc3c(NCCN(C)C)c(OC)ccc13)CCc1cc3c(cc1-2)OCO3`, the IC50 in the test with HepG2 was found to be 1240 nM. On the same count and under the same terms, then `CCCCCCCCc1c2[n+](cc3c(NCCN)c(OC)ccc13)CCc1cc3c(cc1-2)OCO3`, with 8610 nM; and `CCCCCCc1c2[n+](cc3c(NCCN(C)C)c(OC)ccc13)CCc1cc3c(cc1-2)OCO3`, with 2420 nM. For the compound `CCCCCCCCCCc1c2[n+](cc3c(NCCN(C)C)c(OC)ccc13)CCc1cc3c(cc1-2)OCO3`, the IC50 with HepG2 came out at 1020 nM.

As for `CCCCCCCCc1c2[n+](cc3c(NCCCN)c(OC)ccc13)CCc1cc3c(cc1-2)OCO3`, the IC50 in the test on HepG2 stood at 7180 nM. On to `O=P1(N(CCCl)CCCl)NCCCO1` (stereo not given) [CYCLOPHOSPHAMIDE ANHYDROUS], for which, in the test with H22, the inhibition in vivo at 20 mg/kg was determined as 64.6%. As to `CCCCCCCCc1c2[n+](cc3c(NCCCN4CCOCC4)c(OC)ccc13)CCc1cc3c(cc1-2)OCO3`, the IC50 in the test on HepG2 is 1120 nM. The ΔTm was found to be 18.5 °C with Quadruplex DNA [1], 0.6 °C in the test with DNA and 17.4 °C in the test with Quadruplex DNA [2].

For the compound `CCCCCCc1c2[n+](cc3c(NCCO)c(OC)ccc13)CCc1cc3c(cc1-2)OCO3`, the IC50 in the test on HepG2 came to 4520 nM. For `CCCCCCCCc1c2[n+](cc3c(NCCCN4CCCC4)c(OC)ccc13)CCc1cc3c(cc1-2)OCO3`, in the test on HepG2, the IC50 stood at 1370 nM. Besides, the figures for the ΔTm with Quadruplex DNA [1], in the test with DNA and with Quadruplex DNA [2] were 23.1 °C, 1.8 °C and 19.3 °C, respectively.

For the origin of these results see ChEMBL document CHEMBL5241127, “Design, synthesis and biological evaluation of novel 9-N-substituted-13-alkylberberine derivatives from Chinese medicine as anti-hepatocellular carcinoma agents” (Bioorg Med Chem, 2023).
